Patent publication US12344620B2, “BRD4 inhibitor compound in solid form and preparation method therefor and use thereof” (CSPC ZHONGQI PHARMACEUTICAL TECHNOLOGY (SHIJIAZHUANG) CO., …, priority 2019, dated 2025)

How the values were obtained:
[1] = Solid stability test of the crystalline form A; assay type: physicochemical
[2] = Hygroscopicity study by dynamic vapor sorption (DVS); assay type: physicochemical; details: 25° C. and 80% RH
Procedure: • Instrument model: SMS DVS advantage dynamic vapor sorption analyzer • Testing conditions: the sample (10-20 mg) was placed in DVS sample trays for testing. Detailed DVS Parameters: • Temperature: 25° C. • Balancing: dm/dt=0.01%/min (shortest: 10 min, longest: 180 min) • Drying: drying for 120 min at 0% RH • RH (%) testing step: 10% • RH (%) testing step range: 0%-90%-0%
The evaluation of hygroscopicity was classified as follows:
• 10-15 mg of the crystalline form A of the compound of formula (I) was placed on a DVS sample tray for testing.

With `Cc1sc2c(c1C)C(c1ccc(Cl)cc1)=N[C@@H](CC(=O)Nc1ccc3c(c1)COC3=O)c1nnc(C)n1-2` as the compound, how does the Appearance ([1]; 0 day (initial)) read?
Its Appearance is “White”.

What about the Content ([1]; 0 day (initial)) of the same compound?
Its Content is 98.7%.

What about the “Crystalline form (XRPD)” value ([1]; 0 day (initial)) of the same compound?
Its value is “form A”.

And the Total impurity ([1]; 0 day (initial))?
Its Total impurity is 0.17%.

And the Appearance ([1]; 25° C./60% RH, sealed, 90 days)?
The Appearance was “White”.

What about the Content ([1]; 25° C./60% RH, sealed, 90 days) of the same compound?
The Content was 99.4%.

And the “Crystalline form (XRPD)” value ([1]; 25° C./60% RH, sealed, 90 days)?
The value was “form A”.

What about the Total impurity ([1]; 25° C./60% RH, sealed, 90 days) of the same compound?
Its Total impurity is 0.12%.

What about the Appearance ([1]; 40° C./75% RH, sealed, 90 days) of the same compound?
Its Appearance is “White”.

What about the Content ([1]; 40° C./75% RH, sealed, 90 days) of the same compound?
Its Content is 99.2%.

And the “Crystalline form (XRPD)” value ([1]; 40° C./75% RH, sealed, 90 days)?
The value was “form A”.

What about the Total impurity ([1]; 40° C./75% RH, sealed, 90 days) of the same compound?
The Total impurity was 0.19%.

And the “Solid stability (conclusion)” value ([1]; accelerated and prolonged conditions, 90 days)?
Its value is “good stability”.

What about the Moisture absorption classification [2] of the same compound?
Its Moisture absorption classification is “slightly hygroscopic”.

And the “ΔW, increase in weight by moisture sorption” value [2]?
Its value is 1.789%.
